Where “and” joins values, the source holds several entries; their conditions need not be identical. Equal entries are not always repeated.
How the values were obtained:
UV absorption in ethanol = format: physicochemical
[1] = Photostability of a film of oily solution under an Oriel sun simulator, quantified by HPLC; format: physicochemical; settings: 5% by weight in Miglyol 812 oil; about 1 mg/cm^2 film; irradiated one hour, UVA=14.2 mW/cm^2, UVB=0.41 mW/cm^2; individual tests
Method: Compared photostabilities between a compound of the prior art and the compound according to the invention of Example 1:
The two products were dissolved at 5% by weight in Miglyol 812 oil. About 10 mg of oily solution are spread over 10 cm^2 onto the surface of a frosted-glass hollow disc; the amount is determined by weighing.
The films of oily solutions are irradiated for one hour using an Oriel sun simulator (UVA=14.2 mW/cm^2; UVB=0.41 mW/cm^2), and then extracted with 10 ml of ethanol containing 10% isopropanol and treated with ultrasound for 5 minutes. The quantifications of the products are performed by HPLC of the extracts.
HPLC conditions: column: UP5WOD-25QS, 250*4.6 mm, 5 μm, Interchrom; eluent: methanol (Comparative Example 1) and 96% methanol+4% water (Example 1); flow rate: 1 ml/minute; injected volume: 10 μl; detection: diode array; rt (minutes): 5.2 (Comparative Example 1) and 14.9 (Example 1).
The degrees of loss are determined by comparison of the amounts of product present in the irradiated samples and in the non-irradiated controls prepared simultaneously and treated in the same manner (average of 3 samples; S=surface area/mg solution): % loss=100*(S0-Sirr)/S0

Row | Compound | UV E1% (UV absorption in ethanol) | UV εmax (UV absorption in ethanol) | UV λmax (UV absorption in ethanol) | % disappearance [1]
1 | CC(C)(C)COC(=O)C(=Cc1ccc(Nc2nc(Nc3ccc(C=C(C(=O)OCC(C)(C)C)C(=O)OCC(C)(C)C)cc3)nc(Nc3ccc(C=C(C(=O)OCC(C)(C)C)C(=O)OCC(C)(C)C)cc3)n2)cc1)C(=O)OCC(C)(C)C [Example 1, 2,4,6-tris(dineopentyl 4′-aminobenzalmalonate)-s-triazine] | 956 | 110000 M⁻¹ cm⁻¹ | 356 nm | 3% and 5% and 4%
2 | CC(C)COC(=O)C(=Cc1ccc(Nc2nc(Nc3ccc(C=C(C(=O)OCC(C)C)C(=O)OCC(C)C)cc3)nc(Nc3ccc(C=C(C(=O)OCC(C)C)C(=O)OCC(C)C)cc3)n2)cc1)C(=O)OCC(C)C [Compound (prior art), 2,4,6-tris(Diisobutyl 4′-aminobenzalmalonate)-s-triazine, reference compound] |  |  |  | 11% and 10% and 9%
3 | CC(C)CC(C)OC(=O)C(=Cc1ccc(Nc2nc(Nc3ccc(C=C(C(=O)OC(C)CC(C)C)C(=O)OC(C)CC(C)C)cc3)nc(Nc3ccc(C=C(C(=O)OC(C)CC(C)C)C(=O)OC(C)CC(C)C)cc3)n2)cc1)C(=O)OC(C)CC(C)C (centres unmarked) [Example 2, 2,4,6-tris(bis(1,3-dimethylbutyl) 4′-aminobenzalmalonate)-s-triazine] | 922 | 111000 M⁻¹ cm⁻¹ | 353 nm | 
